Experimental data taken from patent US20190030166A1, “PERCUTANEOUSLY ABSORBABLE COMPOSITION CONTROLLED IN RELEASE OF WATER-SOLUBLE EFFECTIVE INGREDIENT” (NISSAN CHEMICAL CORPORATION, priority 2016, published 2019).
Peptide text beside a SMILES is read from it.

Experiment: Oil solubilization of Peptide A or B using citral
Type: physicochemical
Conditions: 2 mg peptide, 0.1 mL citral, 0.1 mL ethanol, 80° C. (Peptide A 3 hours, Peptide B 4 hours); 50 μL ethanol solution + 150 μL IPM
Protocol: The oil solubilization experiment of Peptide A is as follows.
Preparation conditions under heating at 80° C. are as follows.
Preparation conditions under stirring at room temperature are as follows. To 1 mL of a screw-top sample tube were added 2 mg of Peptide B, 0.1 mL of citral and 0.1 mL of ethanol, and the mixture was stirred at room temperature for 22 hours to obtain an ethanol solution.
With `CSCC[C@H](NC(=O)[C@H](CC(C)C)NC(=O)[C@@H](NC(=O)[C@H](Cc1ccccc1)NC(=O)CNC(=O)[C@@H](NC(=O)[C@H](CC(C)C)NC(=O)[C@H](CCCCN)NC(=O)[C@H](C)NC(=O)[C@H](Cc1ccccc1)NC(=O)[C@@H](N)CCC(N)=O)[C@@H](C)O)[C@@H](C)O)C(=O)NCC(=O)O` [Peptide A] (H-QFAKLTGFTLMG-OH; N-terminus and C-terminus assumed) the “Solution state in IPM” value was “pale yellow peptide IPM solution”. For `CSCC[C@H](NC(=O)[C@@H](N)CO)C(=O)N[C@@H](CCCCN)C(=O)N[C@H](C(=O)N[C@H](C(=O)N[C@H](C(=O)N[C@@H](C)C(=O)N[C@@H](Cc1ccccc1)C(=O)N[C@@H](CC(N)=O)C(=O)N[C@@H](CCC(N)=O)C(=O)N[C@@H](Cc1ccccc1)C(=O)NCC(=O)N1CCC[C@H]1C(=O)O)C(C)C)[C@@H](C)O)C(C)C` [Peptide B] (H-SMKVTVAFNQFGP-OH; N-terminus and C-terminus assumed), the “Solution state in IPM” value was “pale yellow peptide IPM solution”.

Same assay, conditions: 2 mg peptide, 0.1 mL citral, 0.1 mL ethanol, stirred at room temperature 22 hours
With `CSCC[C@H](NC(=O)[C@@H](N)CO)C(=O)N[C@@H](CCCCN)C(=O)N[C@H](C(=O)N[C@H](C(=O)N[C@H](C(=O)N[C@@H](C)C(=O)N[C@@H](Cc1ccccc1)C(=O)N[C@@H](CC(N)=O)C(=O)N[C@@H](CCC(N)=O)C(=O)N[C@@H](Cc1ccccc1)C(=O)NCC(=O)N1CCC[C@H]1C(=O)O)C(C)C)[C@@H](C)O)C(C)C` [Peptide B] (H-SMKVTVAFNQFGP-OH; N-terminus and C-terminus assumed) the “State of ethanol solution” value was “yellow gel-like substance”.

Experiment: not given
Conditions: not given
Protocol: Solubilization of the complex with citronellal or citral in ethanol was examined while keeping the amino acid as crystal. The amino acids are different in the crystalline state in the commercial products depending on the kind thereof, so that there were fear that the results might cause fluctuation. Thus, an operation for enlarging the surface in contact with the liquid was added by making the difference due to crystals small as well as making the surface area as much as possible. Specifically, the crystals of the amino acids were ground in a mortar and then sieved through a 100 μm sieve to provide powders, which were used in the present test.
The amount and heating time of citronellal or citral necessary for solubilizing the obtained complex in ethanol, and the dispersed state of the obtained complex in ethanol was confirmed.
With `NC(=O)CC[C@H](N)C(=O)O` [Glutamine, L(+)-glutamine] the “Amount of citral necessary for solubilizing in ethanol” value (“Amount of citral necessary” below) was 700 mg and the “Heating time necessary for solubilizing in ethanol” value (“Heating time necessary” for short) was 24 h. With `N[C@@H](Cc1c[nH]cn1)C(=O)O` [Histidine, L-histidine] the “Amount of citronellal necessary for solubilizing in ethanol” value (from here on “Amount of citronellal necessary”) was 700 mg and the “Heating time necessary” value was 17.5 h. For `CC[C@H](C)[C@H](N)C(=O)O` [Isoleucine, L(+)-isoleucine], the “Amount of citral necessary” value was 700 mg and the “Heating time necessary” value was 0.25 h. With `C[C@H](N)C(=O)O` [L-Alanine, L-alanine] the “Amount of citral necessary” value was 700 mg and the “Heating time necessary” value was 5 h. In the case of `N[C@@H](CS)C(=O)O` [L-cysteine], the “Amount of citronellal necessary” value is reported as 700 mg and the “Heating time necessary” value is reported as 0.33 h. With `NCCCC[C@H](N)C(=O)O` [Lysine, L-(+) lysine] the “Amount of citronellal necessary” value was 700 mg and the “Heating time necessary” value was 0.5 h. For `N[C@@H](Cc1c[nH]c2ccccc12)C(=O)O` [Tryptophan, L-tryptophan], the “Amount of citronellal necessary” value was 700 mg and the “Heating time necessary” value was 24 h. For `CC(C)[C@H](N)C(=O)O` [Valine, L-valine], the “Amount of citral necessary” value was 700 mg and the “Heating time necessary” value was 3 h.
